According to US5324726A, “Benzodiazepine analogs” (Merck & Co., Inc., priority 1992, dated 1994):
Entries after “also recorded” stand apart in the source; their conditions may differ. Square brackets hold non-standard residues; d marks the D form. Peptide text beside a SMILES is read from it. * marks the point of attachment. sY = N[C@@H](Cc1ccc(OS(=O)(=O)O)cc1)C(=O)O; Cbz = O=C(OCc1ccccc1)*; Boc = CC(C)(C)OC(=O)*

Columns and labels:
[1] = test system: CCK receptor; details: background literature; cited from earlier work
[2] = biological target: T1, CCK receptor, brain (cerebral cortex) (Cavia porcellus, UniProt H0VZC5); test: CCK Receptor Binding (Brain): inhibition of 125I-CCK(-33) binding; parameters: species or system guinea pig (Male Hartley); details: guinea pig cerebral cortex membranes
T1 construct: Cerebral cortex was dissected and used as a receptor source; from tissue; host or cells: guinea pig cerebral cortex membranes
T1 sequence (H0VZC5 1-426): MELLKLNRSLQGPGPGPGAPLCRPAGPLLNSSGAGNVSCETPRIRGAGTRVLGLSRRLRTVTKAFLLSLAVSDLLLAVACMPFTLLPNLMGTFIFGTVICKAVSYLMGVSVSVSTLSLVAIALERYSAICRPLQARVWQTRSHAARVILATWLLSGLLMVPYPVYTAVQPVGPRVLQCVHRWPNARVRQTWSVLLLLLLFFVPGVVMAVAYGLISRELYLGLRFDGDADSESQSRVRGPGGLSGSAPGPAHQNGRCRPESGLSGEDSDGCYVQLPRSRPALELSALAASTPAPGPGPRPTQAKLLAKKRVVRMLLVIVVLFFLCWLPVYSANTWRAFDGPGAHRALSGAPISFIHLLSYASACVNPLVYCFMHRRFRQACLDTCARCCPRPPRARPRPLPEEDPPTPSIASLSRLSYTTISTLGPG
Procedure: 2. CCK Receptor Binding (Brain)
CCK-33 was radiolabeled and the binding was performed according to the description for the pancreas method with modifications according to Saito et al., J. Neurochem. 37:483-490, 1981.
Male Hartley guinea pigs (300-500 g) were sacrificed by decapitation and the brains were removed and placed in ice-cold 50 mM, Tris HCl plus 7.58 g/l Trizma-7.4 (pH 7.4 at 25° C.). Cerebral cortex was dissected and used as a receptor source. Each gram of fresh guinea pig brain tissue was homogenized in 10 ml of Tris/Trizma buffer with a Brinkman polytron PT-10. The homogenates were centrifuged at 42,000 g for 15 minutes. Pellets were resuspended in Tris Buffer, centrifuged as above and resuspended in 200 volumes of binding assay buffer (10 mM N-2-hydroxyethyl-piperazine-N'-2-ethane sulfonic acid (HEPES), 5 mM MgCl2, 0.25 mg/ml bacitracin, 1 mM ethylene glycol-bis-(β-aminoethylether-N,N'-tetraadetic acid) (EGTA), and 0.4% bovine serum albumin (BSA)). […] All assays were run in duplicate or triplicate. The reaction mixtures were incubated at 25° C. for 2 hours and centrifuged in a Beckman Microfuge (4 minutes) immediately after adding 1 ml of ice-cold incubation buffer. The supernatant was aspirated and discarded, pellets were counted with a Beckman gamma 5000.

[3] = biological target: T2, CCK receptor, pancreas (Rattus norvegicus, UniProt P30551); test: CCK Receptor Binding (Pancreas): inhibition of 125I-CCK(-33) binding; parameters: species or system rat (Male Sprague-Dawley); details: protease inhibitors added to the binding assay
T2 construct: The whole pancreas was dissected free of fat tissue and was homogenized; from tissue; host or cells: rat pancreas membranes
T2 sequence (P30551 1-444): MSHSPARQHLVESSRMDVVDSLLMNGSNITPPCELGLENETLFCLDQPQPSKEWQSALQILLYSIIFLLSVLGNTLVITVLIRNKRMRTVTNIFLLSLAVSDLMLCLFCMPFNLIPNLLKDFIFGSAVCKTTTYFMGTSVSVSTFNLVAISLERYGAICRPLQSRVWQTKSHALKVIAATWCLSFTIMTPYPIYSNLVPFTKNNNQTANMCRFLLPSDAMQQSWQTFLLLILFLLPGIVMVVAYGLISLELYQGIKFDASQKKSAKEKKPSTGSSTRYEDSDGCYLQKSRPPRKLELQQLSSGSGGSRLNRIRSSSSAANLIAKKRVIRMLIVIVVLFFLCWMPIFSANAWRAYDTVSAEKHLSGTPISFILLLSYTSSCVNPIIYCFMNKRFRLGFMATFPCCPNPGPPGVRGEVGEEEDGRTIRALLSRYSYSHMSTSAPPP
Procedure: 1. CCK Receptor Binding (Pancreas)
CCK-33 was radiolabeled with ^125 I-Bolton Hunter reagent (2000 Ci/mmole) as described by Sankara et al. (J. Biol. Chem. 254: 9349-9351, 1979). Receptor binding was performed according to Innis and Snyder (Proc. Natl. Acad. Sci. 77, 6917-6921, 1980) with the minor modification of adding the additional protease inhibitors, phenylmethane sulfonyl fluoride and o-phenanthroline. The latter two compounds have no effect on the ^125 -CCK receptor binding assay.
Male Sprague-Dawley rats (200-350 g) were sacrificed by decapitation. The whole pancreas was dissected free of fat tissue and was homogenized in 20 volumes of ice-cold 50 mM, Tris HCl (pH 7.7 at 25° C.) with a Brinkmann Polytron PT 10. The homogenates were centrifuged at 48,000 g for 10 min. Pellets were resuspended in Tris Buffer, centrifuged as above and resuspended in 200 volumes of binding assay buffer (50 mM Tris HCl, pH 7.7 at 25° C., 5 mM dithiothrietol, 0.1 mM bacitracin, 1.2 mM phenylmethane sulfonyl fluoride and 0.5 mM o-phenanthroline). […] All assays were run in duplicate or triplicate. The reaction mixtures were incubated at 37° C. for 30 minutes and centrifuged in a Beckman Microfuge (4 minutes) immediately after adding 1 ml of ice-cold incubation buffer. The supernatant was aspirated and discarded, pellets were counted with a Beckman gamma 5000. […]

[4] = test system: gastrin; details: background literature; in vitro; cited from earlier work

| SMILES | CCK antagonism (in words) [1] | further results |
| --- | --- | --- |
| CSCC[C@H](NC(=O)OC(C)(C)C)C(=O)N[C@@H](CC(=O)O)C(=O)N[C@@H](Cc1ccccc1)C(N)=O [Boc-Met-Asp-Phe-NH2] (Boc-Met-Asp-Phe-NH2) | can function as CCK antagonists | – |
| CSCC[C@H](NC(=O)[C@H](Cc1ccc(OS(=O)(=O)O)cc1)NC(=O)OCc1ccccc1)C(=O)NCC(=O)N[C@@H](Cc1c[nH]c2ccccc12)C(=O)N[C@@H](CCSC)C(=O)N[C@@H](CC(=O)O)C(N)=O [Cbz-Tyr(SO3 H)-Met-Gly-Trp-Met-Asp-NH2] (Cbz-[sY]MGWMD-NH2) | can function as CCK antagonists; also recorded: partial agonist | – |
| CN1C(=O)[C@@H](NC(=O)c2cc3cc(O)ccc3[nH]2)N=C(c2ccccc2)c2ccccc21 [Example 15, 1,3-Dihydro-3-(5-hydroxyindole-2-carbonylamino)-1-methyl-5-phenyl-2H-1,4-benzodiazepin-2-one] | – | IC50 [2]: 910 nM |
| CSCC[C@H](N)C(=O)N[C@@H](CC(=O)O)C(=O)N[C@@H](Cc1ccccc1)C(N)=O [Met-Asp-Phe-NH2] (H-Met-Asp-Phe-NH2) | can function as CCK antagonists | – |
| CCCC(=O)Nc1nc2c(ncn2[C@@H]2O[C@@H]3COP(=O)(O)O[C@H]3[C@H]2OC(=O)CCC)c(=O)[nH]1 [dibutyryl cyclic GMP] | the most potent | – |
| c1cnc2c(c1)ccc1cccnc12 [o-phenanthroline] | – | effect on the 125-CCK receptor binding assay [3]: no effect |
| O=S(=O)(F)Cc1ccccc1 [phenylmethane sulfonyl fluoride] | – | effect on the 125-CCK receptor binding assay [3]: no effect |
| CCCN(CCC)C(=O)C(CCC(=O)O)NC(=O)c1ccccc1 (centres unmarked) [proglumide] | – | gastrin antagonism (in words) [4]: very weak in vitro antagonists |
